Literature values as cited in patent US20060128641A1, “Levamisole, avermectins or similar in pyrrolidone solvent” (priority 2002, published 2006).

Assays:
Cooperia = settings: background table, cattle parasites
Ostertagia = settings: background table, cattle parasites
[1] = previously found
[2] = background

## c1ccc([C@H]2CN3CCSC3=N2)cc1 [Levamisole]
Cooperia
  Cooperia Efficacy: Good
Ostertagia
  Ostertagia Efficacy: Poor
[1]
  pH required for stability: less than 4
[2]
  solubility in water: water soluble
